From PMC12381739, “Druglike Molecular Degraders of the Oncogenic RNA-Binding Protein HuR” (JACS Au, 2025)

Columns and labels:
[1] = system: Bcl2 and FOXQ1 mRNA; assay: mRNA RT-qPCR of Bcl2 and FOXQ1 in MCF-7 cells; format: cell-based, human; details: MCF-7, any of the concentrations evaluated
Method: MCF-7 cells were seeded into 12-well plates (∼150,000 cells per well) at 60–70% confluency incubated for 12 h. The cells were then treated with different synthesized compounds at the indicated concentrations or with vehicle control for 24 and 48 h. After treatment, total RNA was extracted using the QuickRNA Miniprep Kit (Zymo Research) according to the manufacturer’s protocol, including DNase I treatment. Reverse transcription was performed on 1 μg of total RNA using the qScript cDNA Synthesis Kit (Quantabio) following the manufacturer’s instructions. Approximately 30 ng of cDNA were used for each qPCR reaction, which was carried out using the Luna Universal qPCR Master Mix (New England BioLabs, cat# E3010G) on a CFX Opus 384 Real-Time PCR System. Relative expression levels of Bcl-2 and FOXQ1 were calculated by normalizing to GAPDH expression using the ΔΔCt method.

[2] = system: MCF-7 spheroids; assay: 3D spheroid growth model, MCF-7; format: cell-based, human
Method: (§1) MDA-MB-231 and MCF-7 breast cancer cells were cultured in standard tissue culture plates using RPMI or DMEM media supplemented with 10% fetal bovine serum (FBS) and 1% penicillin–streptomycin until they reached approximately 80% confluency. Cells were washed with PBS and dissociated using 0.25% Trypsin-EDTA, followed by neutralization with complete medium. Viability was assessed via trypan blue exclusion, ensuring >90% viable cells. For spheroid formation, cells were seeded into ultralow attachment 96-well plates at a density of 5000 cells/well in 200 μL of complete medium. Plates were centrifuged at 1000 rpm for 5 min to promote aggregation and incubated at 37 °C in a humidified 5% CO2 atmosphere. Spheroid formation was monitored daily using an inverted microscope. Media exchanges or treatment additions were performed by carefully aspirating 100 μL of medium from each well and replacing it with an equal volume of fresh or treatment-containing medium. Differences in spheroid characteristics between the two cell lines were noted: MCF-7 cells, being epithelial and E-cadherin positive, formed compact, uniform spheroids at lower seeding densities (1000–5000 cells/well) over 3–5 days, whereas MDA-MB-231 cells, which lack E-cadherin, required higher densities (5000–10,000 cells/well) and formed looser aggregates typically within 2–4 days. All experiments were performed in duplicates. Surface area was calculated using Image View’s multipoint connection function.

[3] = system: MDA-MB-231 spheroids; assay: 3D spheroid growth model, MDA-MB-231; format: cell-based, human
Method: as §1

[4] = target: HuR (Homo sapiens, UniProt Q15717); assay: HuR protein expression by western blot in MCF-7 cells; format: cell-based; design: endogenous in cells; host or cells: MCF-7
HuR, sequence (Q15717 whole entry): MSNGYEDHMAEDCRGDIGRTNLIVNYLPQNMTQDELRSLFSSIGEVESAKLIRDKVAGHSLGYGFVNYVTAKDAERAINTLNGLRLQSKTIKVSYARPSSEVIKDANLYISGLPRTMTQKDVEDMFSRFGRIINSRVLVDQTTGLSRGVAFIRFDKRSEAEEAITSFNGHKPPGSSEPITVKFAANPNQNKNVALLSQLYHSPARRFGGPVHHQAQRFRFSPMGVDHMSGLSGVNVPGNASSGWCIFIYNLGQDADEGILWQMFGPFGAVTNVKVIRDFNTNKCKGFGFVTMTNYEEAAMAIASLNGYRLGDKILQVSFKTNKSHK
Source text: Michigan Cancer Foundation-7 (MCF-7) cells were chosen due to their documented overexpression of HuR, which has been linked to cancer pathogenicity in this specific cell line. , Consequently, reducing HuR expression to physiologically normal levels is considered a potential strategy for novel anticancer therapies targeting breast cancers associated with HuR overexpression.
Total protein was extracted using RIPA cell lysis buffer (BioPrep) containing a protease inhibitor, and protein concentration was measured using the BCA protein assay (Sigma-Aldrich) according to the manufacturer’s protocol. Approximately 30 μg of total protein were resolved on a 12% SDS-acrylamide gel and transferred to a PVDF membrane (Immobilon FL transfer membrane; Merck). The membrane was washed with 1× Tris-buffered saline (TBS) containing 0.1% (v/v) Tween-20 (TBST; Tris-base, pH 7.6, NaCl, and Tween-20) and blocked in 1× TBST containing 5% (w/v) BSA for 2 h at room temperature. The membrane was then incubated overnight at 4 °C with primary antibodies: a 1:1000 dilution of rabbit anti-ELAVL1/HuR (Cell Signaling Technology, #12582), a 1:1000 dilution of mouse anti-Bcl2 (Cell Signaling Technology, #15071), or a 1:10,000 dilution of rabbit anti-Vinculin (Cell Signaling Technology, #13901) in 1× TBST containing 5% (w/v) BSA. Following primary antibody incubation, the membrane was washed with 1× TBST and incubated with a 1:10,000 dilution of the appropriate horseradish-peroxidase-conjugated secondary antibody (antirabbit IgG: Cell Signaling, #7074 or antimouse IgG: Cell Signaling, #7076) at room temperature for 2 h. After washing three times with 1X TBST (10 min per wash), protein bands were visualized using Clear Band ECL Substrate (Gene Bio-Application) on the Azure C300 Imaging System. The fold change in the expression of the target proteins (HuR or Bcl2) was calculated by normalizing the band intensity to the Vinculin band intensity using ImageJ.

[5] = target: T1, HuR RRM1/2 (Homo sapiens, UniProt Q15717); assay: Fluorescence polarization (FP) displacement assay, 5′ FAM-labeled RNA probe from HuR; details: displacement of 5′-FAM RNA probe UAUUUAUUUA (20 nM) from 500 nM HuR RRM1/2; read-out: Binding affinity towards HuR in FP assay (Kd)
T1 construct: 20 nM of the 5′-FAM RNA probe and 500 nM of HuR RRM1/2
T1 sequence (Q15717 18-186 limits assumed): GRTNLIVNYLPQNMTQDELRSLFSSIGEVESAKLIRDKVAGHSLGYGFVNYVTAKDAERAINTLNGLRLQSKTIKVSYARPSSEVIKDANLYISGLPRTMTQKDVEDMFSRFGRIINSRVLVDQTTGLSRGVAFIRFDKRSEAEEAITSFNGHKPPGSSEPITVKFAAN
Method: Following the synthesis, our initial aim was to ensure that the new derivatives retained their affinity for HuR’s RNA-binding pocket. Thus, a binding evaluation assay was conducted. As previously reported, the RNA-binding pocket of HuR specifically recognizes the UTR sequences of mRNAs, with […] identified as a common binding motif. To evaluate the binding of each degrader, we conducted a fluorescence-based assay utilizing a 5-carboxyfluorescein (5′ FAM)-labeled reporter. This fluorescence polarization (FP) assay is based on the displacement of the 5′ FAM-labeled mRNA from HuR’s RNA-binding pocket, which provides insight into both the binding affinity of the degrader and its capacity to disrupt the HuR-mRNA interaction, thereby serving as a means of validating target engagement. When the 5′ FAM-RNA probe is bound to HuR, it forms a binary complex, resulting in slower rotational movement and a consequently high FP signal. However, when either molecule displaces the 5′ FAM-labeled RNA, the probe is released into the solution, where it undergoes rapid rotation, leading to a significant reduction in the FP signal (Figure S3). This decrease in FP serves as a quantitative measure of the degrader’s ability to compete with mRNA for HuR binding. […] As mentioned above, we synthesized a series of HuR ligand derivatives featuring indole and benzothiophene cores, along with ester and carboxylic acid functional groups.
As previously reported, the sequence of the fluorescently labeled (5′-FAM) RNA probe is […]. The assays were performed in PBS buffer (20 mM sodium phosphate, 150 mM NaCl, 1 mM dithiothreitol, 0.05% PLURONIC-127, 15% DMSO) at 293 K. Fluorescence was measured using the Synergy H1 Hybrid Multi-Mode Microplate Reader (Biotek, Agilent) with excitation and emission wavelengths set to 485 and 528 nm, respectively. Each well of a 384-well plate contained 20 nM of the 5′-FAM RNA probe and 500 nM of HuR RRM1/2. Compounds were tested at eight concentrations (0.1 nM–100 μM), with compound 10 serving as a positive control and PBS as the negative control. The protein-mRNA mixture was incubated for 1.5 h to allow for binding interactions. After this incubation, the compounds were added, and the mixture was incubated for an additional hour. The FP emission of the resulting HuR-compound complex was then recorded. The percent inhibition of binding was calculated by comparing the FP values of experimental conditions to the PBS control. The FP value corresponding to the HuR-RNA complex in the presence of DMSO was used as the 100% complexation reference, while the FP value of the labeled RNA alone was set as 0% complexation. The dissociation constant (K d) for the compound-HuR binding interaction was determined by fitting the dose–response curve to specific binding models using Prism 10.2.2. All experiments were performed in triplicate.

[6] = target: T2, GFP-HuR (Homo sapiens, UniProt Q15717); assay: GFP-HuR reporter assay; format: cell-based; details: HEK 293 cells, 10 μM, 24 h
T2 construct: host or cells: HEK-293
T2 sequence (Q15717 whole entry): as the sequence (Q15717 whole entry) above
Method: To assess the effects of the HuR degraders in cells in a high-throughput fashion, a GFP-HuR reporter assay was utilized. In this assay, HuR was fused with green fluorescent protein (GFP), facilitating the monitoring of its expression and stability through fluorescence intensity (Figure A). A decrease in the GFP signal indicates HuR degradation.
HEK-293 cells were cultured in 100 mm diameter plates to approximately 70% confluency and transfected with 15 μg of GFP-HuR (ELAVL1) reporter plasmid (Addgene #121162) in a 1:2 ratio with the PEI transfection reagent (Med Chem Express, HY-K2014) at a concentration of 1 mg/mL, following the manufacturer’s recommended protocol. After 6 h of transfection, the cells were reseeded into 96-well plates. […] Fluorescence measurements were taken using the Synergy H1 Hybrid Multi-Mode Microplate Reader (Biotek, Agilent) with excitation and emission wavelengths set to 479 and 520 nm, respectively, according to the manufacturer’s instructions. All experiments were performed in triplicate.

| SMILES | Kd [5] [nM] | further results |
| --- | --- | --- |
| CCOC(=O)c1cc2cc(N)ccc2[nH]1 [Binder 1] | – | RNA levels of Bcl2 and FOXQ1 with HuR ligands [1]: no effect was observed; day at which a decrease in spheroid surface area was first observed [2]: 14 days; spheroid growth ([2]; 10 nM): no significant impact on spheroid growth; day at which a decrease in spheroid surface area was first observed [3]: 9 days; spheroid growth ([3]; 10 nM): no significant impact on spheroid growth; HuR expression after treatment with HuR ligands alone ([4]; MCF-7, Binder 1 1 µM 24 h, Binder 2 10 µM 48 h (Figure S8)): No significant decrease in HuR expression |
| CCOC(=O)c1cc2cc(NC(=O)/C=C/c3ccc(C(F)(F)F)cc3)ccc2s1 [MG-HuR4] | 1490 | – |
| O=C(/C=C/c1ccc(C(F)(F)F)cc1)Nc1ccc2sc(C(=O)O)cc2c1 [MG-HuR5] | 818 | GFP-HuR fluorescence intensity [6]: significant reduction in fluorescence intensity |
| O=C1CCC(N2C(=O)c3cccc(NCCc4cn(CCCC(=O)Nc5ccc6[nH]c(C(=O)O)cc6c5)nn4)c3C2=O)C(=O)N1 (centres unmarked) [PRO-HuR2] | 10.1 | – |
| CCOC(=O)c1cc2cc(-n3cc(CNc4cccc5c4C(=O)N(C4CCC(=O)NC4=O)C5=O)nn3)ccc2s1 (centres unmarked) [PRO-HuR4] | 10.6 | time-dependent response of HuR degradation ([4]; MCF-7, 10 μM): did not; HuR degradation ability ([4]; MCF-7, 10 μM, 24 h): higher degradation efficiency |
| CCOC(=O)c1cc2cc(NC(=O)C3CCN(c4cccc5c4C(=O)N(C4CCC(=O)NC4=O)C5=O)CC3)ccc2s1 (centres unmarked) [PRO-HuR5] | 6.5 | – |

The remaining compounds from weak to strong by Kd [5], led by results:

| Kd [5] [nM] | SMILES | further results |
| --- | --- | --- |
| 9390 | CCOC(=O)c1cc2cc(NC(=O)CCC(=O)N3CCN(c4cccc5c4C(=O)N(C4CCC(=O)NC4=O)C5=O)CC3)ccc2s1 (centres unmarked) [PRO-HuR6] | – |
| 6430 | CCOC(=O)c1cc2cc(NC(=O)C3CN(c4cccc5c4C(=O)N(C4CCC(=O)NC4=O)C5=O)C3)ccc2s1 (centres unmarked) [PRO-HuR8] | – |
| 1080 | CCOC(=O)c1cc2cc(NC(=O)/C=C/C(=O)c3ccc(OC)cc3)ccc2s1 [MG-HuR1] | – |
| 45.8 | CCOC(=O)c1cc2cc(-n3cc(-c4ccc(C(=O)NCCNc5cccc6c5C(=O)N(C5CCC(=O)NC5=O)C6=O)cc4)nn3)ccc2s1 (centres unmarked) [PRO-HuR7] | – |
| 9.5 | O=C1CCC(N2C(=O)c3cccc(NCc4cn(-c5ccc6[nH]c(C(=O)O)cc6c5)nn4)c3C2=O)C(=O)N1 (centres unmarked) [PRO-HuR1] | – |
| 9.3 | CCOC(=O)c1cc2cc(NC(=O)/C=C/c3ccc(C(F)(F)F)cc3)ccc2[nH]1 [MG-HuR3] | – |
